Source: US20240083861A1, “HSD17B13 INHIBITORS AND USES THEREOF” (FL2022-001, Inc., priority 2020, published 2024)

Biological target: T1, Recombinant human HSD17B13 enzyme (Homo sapiens, UniProt Q7Z5P4)
T1 sequence (Q7Z5P4 20-300): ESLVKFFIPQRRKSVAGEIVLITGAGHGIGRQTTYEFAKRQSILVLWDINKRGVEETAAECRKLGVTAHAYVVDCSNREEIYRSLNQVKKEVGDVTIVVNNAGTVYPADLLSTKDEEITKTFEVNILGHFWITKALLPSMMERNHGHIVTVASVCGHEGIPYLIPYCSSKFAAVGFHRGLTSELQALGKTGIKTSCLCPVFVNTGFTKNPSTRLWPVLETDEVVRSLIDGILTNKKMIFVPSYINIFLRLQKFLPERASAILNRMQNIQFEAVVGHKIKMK
Test: HSD17b13 NAD(P)H-Glo biochemical assay
Conditions: for inhibition at 10 µM: at 10 uM compound, read-out: HSD17β13 % inhibition at 10 uM; for IC50: 50 uM estradiol, 1 mM NAD+, NAD(P)H-Glo luminescence, read-out: HSD17β13 IC50
Procedure, shortened: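 Recombinant human HSD17B13 in 20 mM Tris pH7.4 with 0.002% Tween-20 and 0.02% BSA was preincubated with inhibitor for 20 minutes at RT. The reaction ran 3 hours at 37° C with 50 uM estradiol and 1 mM NAD+ (final). NADH formed was detected by NAD(P)H-Glo luminescence after 1 hour at RT.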

SMILES | inhibition at 10 µM [%] | IC50 [nM]
CN(c1cc2c(nn1)c(-c1cc(C(F)(F)F)c(F)c(O)c1O)nn2C)C1CCOCC1 [Compound 9.141, 3-Fluoro-6-(1-methyl-6-(methyl(tetrahydro-2H-pyran-4-yl)amino)-1H-pyrazolo[4,3-c]pyridazin-3-yl)-4-(trifluoromethyl)benzene-1,2-diol] | 20 | 
O=C(NC12CC(C1)C2)c1ccc2oc(-c3cc(C(F)(F)F)c(F)c(O)c3F)nc2c1 [Compound 1.13, N-(Bicyclo[1.1.1]pentan-1-yl)-2-(2,4-difluoro-3-hydroxy-5-(trifluoromethyl)phenyl)benzo[d]oxa-zole-5-carboxamide] |  | < 100
CC(=O)N1CCN(c2cc3c(cn2)c(-c2cc(C(F)(F)F)c(F)c(O)c2F)nn3C)CC1 [Compound 9.62, 1-(4-(3-(2,4-Difluoro-3-hydroxy-5-(trifluoromethyl)phenyl)-1-methyl-1H-pyrazolo[4,3-c]pyridin-6-yl)piperazin-1-yl)ethanone] |  | 100 to 1000
O=C(NC1(CO)CCC1)c1ccc2oc(-c3cc(C(F)(F)F)c(F)c(O)c3F)nc2c1 [Compound 1.28, 2-(2,4-Difluoro-3-hydroxy-5-(trifluoromethyl)phenyl)-N-(1-(hydroxymethyl)cyclobutyl)benzo[d] oxazole-5-carboxamide] |  | 100 to 1000
O=C(NC12CC(C1)C2)c1ccc2oc(-c3cc(C(F)(F)F)cc(O)n3)nc2c1 [Compound 1.31, N-(Bicyclo[1.1.1]pentan-1-yl)-2-(6-hydroxy-4-(trifluoromethyl)pyridin-2-yl)benzo[d]oxazole-5-carboxamide] | 50 | 
Cn1nc(-c2cc(C(F)(F)F)c(F)c(O)c2F)c2cnc(N3CC(C)(C#N)C3)cc21 [Compound 9.08, 1-(3-(2,4-Difluoro-3-hydroxy-5-(trifluoromethyl)phenyl)-1-methyl-1H-pyrazolo[4,3-c]pyridin-6-yl)-3-methylazetidine-3-carbonitrile] |  | < 100
CS(=O)(=O)N1CCC(c2cc3[nH]nc(-c4cc(C(F)(F)F)cc(O)c4F)c3cn2)CC1 [Compound 13, 2-Fluoro-3-(6-(1-(methylsulfonyl)piperidin-4-yl)-1H-pyrazolo[4,3-c]pyridin-3-yl)-5-(trifluoromethyl)phenol] |  | 100 to 1000
Cn1nc(-c2cc(C(F)(F)F)c(F)c(O)c2F)c2cnc(N3CCOCC34CC4)nc21 [Compound 12.03, 2,6-Difluoro-3-(1-methyl-6-(7-oxa-4-azaspiro[2.5]octan-4-yl)-1H-pyrazolo[3,4-d]pyrimidin-3-yl)-5-(trifluoromethyl)phenol] |  | < 100
CN1CCN(c2cc3c(cn2)c(-c2cc(C(F)(F)F)c(F)c(O)c2F)nn3C)CC1=O [Compound 9.68, 4-(3-(2,4-Difluoro-3-hydroxy-5-(trifluoromethyl)phenyl)-1-methyl-1H-pyrazolo[4,3-c]pyridin-6-yl)-1-methylpiperazin-2-one] |  | < 100
O=C(NC1CCC1)c1ccc2oc(-c3cc(O)c(F)c(F)c3)nc2c1 [Compound 1, N-Cyclobutyl-2-(3,4-difluoro-5-hydroxyphenyl)benzo[d]oxazole-5-carboxamide] |  | < 100
Cn1nc(-c2cc(C(F)(F)F)c(F)c(O)c2F)c2cnc(N3CC4(CC4)NCC3=O)cc21 [Compound 9.115, 7-(3-(2,4-Difluoro-3-hydroxy-5-(trifluoromethyl)phenyl)-1-methyl-1H-pyrazolo[4,3-c]pyridin-6-yl)-4,7-diazaspiro[2.5]octan-6-one] |  | 100 to 1000
O=C(NC1CCOCC1)c1ccc2oc(-c3cc(O)c(F)c(F)c3)nc2c1 [Compound 1.07, 2-(3,4-Difluoro-5-hydroxyphenyl)-N-(tetrahydro-2H-pyran-4-yl)benzo[d]oxazole-5-carboxamide] |  | 100 to 1000
Oc1cc(-c2n[nH]c3nc(N4CC5(CCOCC5)C4)ncc23)cc(C(F)(F)F)c1F [Compound 10.01, 5-(6-(7-Oxa-2-azaspiro[3.5]nonan-2-yl)-1H-pyrazolo[3,4-d]pyrimidin-3-yl)-2-fluoro-3-(trifluoromethyl)phenol] |  | 100 to 1000
CO[C@H]1C[C@H](NC(=O)c2ccc3oc(-c4cc(C(F)(F)F)c(F)c(O)c4F)nc3c2)C1 [Compound 1.16, 2-(2,4-Difluoro-3-hydroxy-5-(trifluoromethyl)phenyl)-N-(trans-3-methoxycyclobutyl)benzo[d]oxazole-5-carboxamide] |  | 100 to 1000
Cn1nc(-c2cc(C(F)(F)F)c(F)c(O)c2F)c2cnc(N3CC(C)(C)C3)nc21 [Compound 9.06, 3-(6-(3,3-Dimethylazetidin-1-yl)-1-methyl-1H-pyrazolo[3,4-d]pyrimidin-3-yl)-2,6-difluoro-5-(trifluoromethyl)phenol] |  | < 100
CN(c1ncc2c(-c3cc(C(F)(F)F)c(F)c(O)c3F)nn(C)c2n1)C1CC1 [Compound 12.04, 3-(6-(Cyclopropyl(methyl)amino)-1-methyl-1H-pyrazolo[3,4-d]pyrimidin-3-yl)-2,6-difluoro-5-(trifluoromethyl)phenol] |  | < 100
Cn1nc(-c2cc(C(F)(F)F)c(F)c(O)c2F)c2cnc(N3CCOCC34CCCC4)cc21 [Compound 9.84, 2,6-Difluoro-3-(1-methyl-6-(9-oxa-6-azaspiro[4.5]decan-6-yl)-1H-pyrazolo[4,3-c]pyridin-3-yl)-5-(trifluoromethyl)phenol] |  | < 100
COCC1CN(c2cc3c(cn2)c(-c2cc(C(F)(F)F)c(F)c(O)c2F)nn3C)CCO1 (stereo not drawn) [Compound 9.77, 2,6-Difluoro-3-(6-(2-(methoxymethyl)morpholino)-1-methyl-1H-pyrazolo[4,3-c]pyridin-3-yl)-5-(trifluoromethyl)phenol] |  | < 100

Next, values leading:

inhibition at 10 µM [%] | IC50 [nM] | SMILES
 | < 100 | CC(C)OC1CCN(c2ncc3c(-c4cc(C(F)(F)F)c(F)c(O)c4F)nn(C)c3n2)CC1 [Compound 18.69, 2,6-Difluoro-3-(6-(4-isopropoxypiperidin-1-yl)-1-methyl-1H-pyrazolo[3,4-d]pyrimidin-3-y1)-5-(trifluoromethyl)phenol]
 | < 100 | Cn1nc(-c2cc(C(F)(F)F)c(F)c(O)c2F)c2cnc(N3CCCC(c4ccncn4)C3)nc21 (stereo not drawn) [Compound 18.71, 2,6-Difluoro-3-(1-methyl-6-(3-(pyrimidin-4-y1)piperidin-1-yl)-1H-pyrazolo[3,4-d]pyrimidin-3-y1)-5-(trifluoromethyl)phenol]
 | < 100 | Cn1nc(-c2cc(C(F)(F)F)c(F)c(O)c2F)c2cnc(N3CCN(C(=O)Nc4ccccc4)CC34CC4)cc21 [Compound 21.04, 4-(3-(2,4-Difluoro-3-hydroxy-5-(trifluoromethyl)phenyl)-1-methyl-1H-pyrazolo[4,3-c]pyridin-6-y1)-N-phenyl-4,7-diazaspiro[2.5]octane-7-carboxamide]
 | < 100 | Cn1nc(-c2cc(C(F)(F)F)c(F)c(O)c2F)c2cnc(N3CCN(C(=O)Nc4ccccc4)CC3(C)C)cc21 [Compound 21.03, 4-(3-(2,4-Difluoro-3-hydroxy-5-(trifluoromethyl)phenyl)-1-methyl-1H-pyrazolo[4,3-c]pyridin-6-y1)-3,3-dimethyl-N-phenylpiperazine-1-carboxamide]
 | < 100 | Cn1nc(-c2cc(C(F)(F)F)c(F)c(O)c2F)c2cnc(N3CCC(O)CC3)nc21 [Compound 18.04, 1-(3-(2,4-Difluoro-3-hydroxy-5-(trifluoromethyl)phenyl)-1-methyl-1H-pyrazolo[3,4-d]pyrimidin-6-y1)piperidin-4-ol]
 | < 100 | C[C@H]1CN(c2cc3c(cn2)c(-c2cc(C(F)(F)F)c(F)c(O)c2F)nn3C)CCN1C(=O)Nc1ccccc1 [Compound 21.06, (S)-4-(3-(2,4-Difluoro-3-hydroxy-5-(trifluoromethyl)phenyl)-1-methyl-1H-pyrazolo[4,3-c]pyridin-6-y1)-2-methyl-N-phenylpiperazine-1-carboxamide]
 | < 100 | Cn1nc(-c2cc(C(F)(F)F)c(F)c(O)c2F)c2cnc(N3CCC(C)(O)CC3)nc21 [Compound 18.65, 1-(3-(2,4-Difluoro-3-hydroxy-5-(trifluoromethyl)phenyl)-1-methyl-1H-pyrazolo[3,4-d]pyrimidin-6-yl)-4-methylpiperidin-4-ol]
 | < 100 | COCC1COCCN1c1ncc2c(-c3cc(C(F)(F)F)c(F)c(O)c3F)nn(C)c2n1 (stereo not drawn) [Compound 18.03, 2,6-Difluoro-3-(6-(3-(methoxymethyl)morpholino)-1-methyl-1H-pyrazolo[3,4-d]pyrimidin-3-y1)-5-(trifluoromethyl)phenol]
 | 100 to 1000 | CN(C)CC1CN(c2ncc3c(-c4cc(C(F)(F)F)c(F)c(O)c4F)nn(C)c3n2)CCO1 (stereo not drawn) [Compound 18.33, 3-(6-(2-((Dimethylamino)methyl)morpholino)-1-methyl-1H-pyrazolo[3,4-d]pyrimidin-3-y1)-2,6-difluoro-5-(trifluoromethyl)phenol]
 | < 100 | Cc1cc(-c2n[nH]c3cc(C4=CCN(S(C)(=O)=O)CC4)ccc23)c(F)c(O)c1F [Compound 14.02, 2,6-Difluoro-3-methyl-5-(6-(1-(methylsulfonyl)-1,2,3,6-tetrahydropyridin-4-y1)-1H-indazol-3-y1)phenol]
 | < 100 | COC1(C)CCN(c2ncc3c(-c4cc(C(F)(F)F)c(F)c(O)c4F)nn(C)c3n2)CC1 [Compound 18.61, 2,6-Difluoro-3-(6-(4-methoxy-4-methylpiperidin-1-yl)-1-methyl-1H-pyrazolo[3,4-d]pyrimidin-3-yl)-5-(trifluoromethyl)phenol]
 | < 100 | Cn1nc(-c2cc(C(F)(F)F)c(F)c(O)c2F)c2cnc(N3CCOC(C)(C)C3)nc21 [Compound 18.103, 3-(6-(2,2-Dimethylmorpholino)-1-methyl-1H-pyrazolo[3,4-d]pyrimidin-3-y1)-2,6-difluoro-5-(trifluoromethyl)phenol]
